According to PMC3528106 (Neurobiology of disease, 2012):
pEC50, pIC50: −log10 of the molar value. Where two headings read alike, the source gives them in different places.

Legend:
CYP2D6 = CYP2D6 (Homo sapiens, UniProt P10635); test: CYP2D6 inhibition in liver cells; assay type: in vitro ADME; details: read-out: CYP2D6 IC50; inhibition of cytochrome P450 enzymes in liver cells
CYP3A4 = CYP3A4 (Homo sapiens, UniProt P08684); test: CYP3A4 inhibition in liver cells; assay type: in vitro ADME; details: read-out: CYP3A4 IC50; inhibition of cytochrome P450 enzymes in liver cells
HDAC2 = HDAC2 (Homo sapiens, UniProt Q92769); test: HDAC2 inhibition, Fluor-de-Lys fluorescence assay with purified enzyme
[1] = tested on: Vdr and Dhrs4 expression in STHdhQ111 cells; test: Expression of Vdr and Dhrs4 in STHdhQ111 striatal cells; assay type: cell-based, mouse
Hct116 cells = test: Cell proliferation inhibition assay, Hct116; assay type: cell-based, human; details: for pIC50: read-out: Proliferation inhibition Hct116, IC50, 72h
STHdhQ111 striatal cells = test: XTT assay of metabolic activity in STHdhQ111 striatal cells; assay type: cell-based, mouse; details: 24 and 48 hrs
[2] = tested on: class I and class II HDAC enzymes; test: HDAC subtype selectivity profile from IC50 values; details: in words
HDAC8 = molecular target: T1, HDAC8 (Homo sapiens, UniProt Q9BY41); test: HDAC8 inhibition, recombinant enzyme cell-free assay; details: read-out: IC50 for Class I HDAC enzymes: HDAC8; Table 1
T1 sequence (Q9BY41 1-377): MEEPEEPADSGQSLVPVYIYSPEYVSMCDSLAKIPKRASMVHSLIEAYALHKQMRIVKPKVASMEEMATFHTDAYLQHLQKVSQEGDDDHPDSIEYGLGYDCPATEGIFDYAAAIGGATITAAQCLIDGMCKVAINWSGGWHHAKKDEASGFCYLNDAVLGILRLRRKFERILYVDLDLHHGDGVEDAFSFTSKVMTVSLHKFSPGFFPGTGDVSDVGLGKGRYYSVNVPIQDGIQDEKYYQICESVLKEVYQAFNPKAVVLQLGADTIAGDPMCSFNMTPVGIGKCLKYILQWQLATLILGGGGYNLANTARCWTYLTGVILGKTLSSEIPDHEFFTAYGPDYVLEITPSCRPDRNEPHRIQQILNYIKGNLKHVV

[3] = tested on: HD-related gene expression in striatum, R6/2 transgenic mice; test: Real-time PCR of HD-related genes in striatum of R6/2 transgenic mice
HDAC5 = HDAC5 (Homo sapiens, UniProt Q9UQL6); test: HDAC5 inhibition; details: read-out: IC50 for Class II HDAC enzymes: HDAC5; Table 1
HDAC4 = HDAC4 (Homo sapiens, UniProt P56524); test: HDAC4 inhibition; details: read-out: IC50 for Class II HDAC enzymes: HDAC4; Table 1
HDAC7 = molecular target: T2, HDAC7 (Homo sapiens, UniProt Q8WUI4); test: HDAC7 inhibition; details: read-out: IC50 for Class II HDAC enzymes: HDAC7; Table 1
T2 sequence (Q8WUI4 1-952): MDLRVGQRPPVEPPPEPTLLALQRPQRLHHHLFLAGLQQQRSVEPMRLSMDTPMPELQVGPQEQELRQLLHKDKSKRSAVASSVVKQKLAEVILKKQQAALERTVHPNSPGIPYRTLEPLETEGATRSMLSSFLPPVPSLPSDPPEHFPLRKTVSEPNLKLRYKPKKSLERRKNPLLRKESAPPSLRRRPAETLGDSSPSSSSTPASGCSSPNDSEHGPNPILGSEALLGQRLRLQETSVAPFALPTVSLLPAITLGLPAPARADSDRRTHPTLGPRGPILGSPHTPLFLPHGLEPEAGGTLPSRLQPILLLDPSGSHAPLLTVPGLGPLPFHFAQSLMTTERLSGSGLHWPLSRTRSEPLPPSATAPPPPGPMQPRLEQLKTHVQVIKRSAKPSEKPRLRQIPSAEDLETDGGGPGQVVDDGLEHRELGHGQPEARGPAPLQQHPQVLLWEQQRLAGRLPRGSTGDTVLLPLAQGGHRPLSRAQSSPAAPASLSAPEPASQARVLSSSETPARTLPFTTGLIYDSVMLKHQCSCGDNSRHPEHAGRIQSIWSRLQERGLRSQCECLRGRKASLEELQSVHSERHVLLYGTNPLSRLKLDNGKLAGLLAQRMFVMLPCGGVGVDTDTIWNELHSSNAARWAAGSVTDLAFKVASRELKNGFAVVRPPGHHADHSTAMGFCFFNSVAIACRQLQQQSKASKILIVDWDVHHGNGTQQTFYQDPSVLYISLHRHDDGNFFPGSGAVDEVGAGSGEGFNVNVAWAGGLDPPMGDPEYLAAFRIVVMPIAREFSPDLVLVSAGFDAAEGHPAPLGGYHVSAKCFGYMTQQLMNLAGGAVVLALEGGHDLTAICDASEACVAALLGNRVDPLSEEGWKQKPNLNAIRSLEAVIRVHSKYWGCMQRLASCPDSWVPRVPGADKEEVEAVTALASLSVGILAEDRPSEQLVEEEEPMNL

IMR90 cells = assay type: cell-based, human; details: read-out: Proliferation inhibition IMR90, IC50; 72h

Sequence of CYP2D6 (P10635 whole entry): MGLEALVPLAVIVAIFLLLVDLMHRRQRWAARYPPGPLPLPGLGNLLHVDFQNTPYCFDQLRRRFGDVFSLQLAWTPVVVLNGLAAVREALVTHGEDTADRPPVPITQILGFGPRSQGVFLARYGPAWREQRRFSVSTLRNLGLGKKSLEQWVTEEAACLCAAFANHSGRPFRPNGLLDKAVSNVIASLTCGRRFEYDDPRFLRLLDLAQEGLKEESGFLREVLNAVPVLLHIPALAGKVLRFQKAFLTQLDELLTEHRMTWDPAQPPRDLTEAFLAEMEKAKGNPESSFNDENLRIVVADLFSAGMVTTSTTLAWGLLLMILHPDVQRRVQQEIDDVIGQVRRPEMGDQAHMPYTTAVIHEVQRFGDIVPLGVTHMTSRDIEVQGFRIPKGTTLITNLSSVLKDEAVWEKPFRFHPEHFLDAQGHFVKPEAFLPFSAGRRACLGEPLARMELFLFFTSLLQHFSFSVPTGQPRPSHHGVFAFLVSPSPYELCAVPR
Sequence of CYP3A4 (P08684 whole entry): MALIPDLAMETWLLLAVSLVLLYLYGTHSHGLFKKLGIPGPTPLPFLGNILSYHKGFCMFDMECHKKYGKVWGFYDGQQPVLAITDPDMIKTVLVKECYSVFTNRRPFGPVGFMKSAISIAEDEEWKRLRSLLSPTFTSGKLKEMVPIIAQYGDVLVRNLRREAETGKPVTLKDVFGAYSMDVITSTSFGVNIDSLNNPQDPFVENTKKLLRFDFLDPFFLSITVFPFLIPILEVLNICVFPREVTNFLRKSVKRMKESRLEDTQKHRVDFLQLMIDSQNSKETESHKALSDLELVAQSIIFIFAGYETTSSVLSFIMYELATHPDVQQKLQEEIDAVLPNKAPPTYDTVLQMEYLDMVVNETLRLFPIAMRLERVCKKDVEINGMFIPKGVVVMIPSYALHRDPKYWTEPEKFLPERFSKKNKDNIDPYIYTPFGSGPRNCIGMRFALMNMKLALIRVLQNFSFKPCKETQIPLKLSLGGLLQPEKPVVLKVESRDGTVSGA
Sequence of HDAC2 (Q92769 whole entry): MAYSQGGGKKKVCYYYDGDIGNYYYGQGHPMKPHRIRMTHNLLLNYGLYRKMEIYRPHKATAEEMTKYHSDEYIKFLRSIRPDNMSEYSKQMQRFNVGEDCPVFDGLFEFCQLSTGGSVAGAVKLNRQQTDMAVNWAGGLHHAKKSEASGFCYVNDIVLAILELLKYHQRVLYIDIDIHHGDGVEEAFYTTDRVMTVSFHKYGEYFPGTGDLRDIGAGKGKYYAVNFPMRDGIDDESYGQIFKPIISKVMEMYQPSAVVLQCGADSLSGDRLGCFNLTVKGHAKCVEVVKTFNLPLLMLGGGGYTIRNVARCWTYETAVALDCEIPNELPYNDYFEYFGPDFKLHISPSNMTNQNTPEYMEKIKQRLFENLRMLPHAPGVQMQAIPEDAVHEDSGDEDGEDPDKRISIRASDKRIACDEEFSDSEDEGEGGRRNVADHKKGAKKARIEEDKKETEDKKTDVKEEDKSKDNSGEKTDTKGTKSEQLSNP
Sequence of HDAC4 (P56524 whole entry, species assumed): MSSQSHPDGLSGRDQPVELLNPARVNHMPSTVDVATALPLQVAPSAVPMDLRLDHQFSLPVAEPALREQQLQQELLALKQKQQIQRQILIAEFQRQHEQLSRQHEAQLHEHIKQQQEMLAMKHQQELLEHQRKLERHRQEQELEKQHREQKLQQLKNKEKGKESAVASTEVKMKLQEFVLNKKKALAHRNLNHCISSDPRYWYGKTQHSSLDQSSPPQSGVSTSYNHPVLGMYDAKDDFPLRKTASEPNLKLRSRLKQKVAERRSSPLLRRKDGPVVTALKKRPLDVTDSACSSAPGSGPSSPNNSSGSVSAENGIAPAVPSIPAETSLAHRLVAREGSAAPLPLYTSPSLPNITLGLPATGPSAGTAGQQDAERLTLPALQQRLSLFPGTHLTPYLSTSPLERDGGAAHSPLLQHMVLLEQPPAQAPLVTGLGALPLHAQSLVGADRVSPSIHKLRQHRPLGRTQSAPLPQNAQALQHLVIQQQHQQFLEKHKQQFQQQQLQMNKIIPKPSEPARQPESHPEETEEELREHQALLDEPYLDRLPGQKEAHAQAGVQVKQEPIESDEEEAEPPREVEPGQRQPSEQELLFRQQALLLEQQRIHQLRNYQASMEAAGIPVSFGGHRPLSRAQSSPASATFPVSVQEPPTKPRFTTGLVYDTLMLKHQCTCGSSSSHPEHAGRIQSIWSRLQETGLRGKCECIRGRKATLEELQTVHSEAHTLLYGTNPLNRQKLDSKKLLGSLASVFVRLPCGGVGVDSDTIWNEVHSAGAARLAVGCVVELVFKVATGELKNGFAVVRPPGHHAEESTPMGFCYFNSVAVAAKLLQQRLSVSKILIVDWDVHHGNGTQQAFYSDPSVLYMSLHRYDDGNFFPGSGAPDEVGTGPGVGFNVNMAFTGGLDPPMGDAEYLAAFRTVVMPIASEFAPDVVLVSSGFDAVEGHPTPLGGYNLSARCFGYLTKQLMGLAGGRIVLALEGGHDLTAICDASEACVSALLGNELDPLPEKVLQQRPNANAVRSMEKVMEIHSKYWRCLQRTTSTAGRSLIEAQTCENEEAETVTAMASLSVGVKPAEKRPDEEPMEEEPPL
Sequence of HDAC5 (Q9UQL6 whole entry, species assumed): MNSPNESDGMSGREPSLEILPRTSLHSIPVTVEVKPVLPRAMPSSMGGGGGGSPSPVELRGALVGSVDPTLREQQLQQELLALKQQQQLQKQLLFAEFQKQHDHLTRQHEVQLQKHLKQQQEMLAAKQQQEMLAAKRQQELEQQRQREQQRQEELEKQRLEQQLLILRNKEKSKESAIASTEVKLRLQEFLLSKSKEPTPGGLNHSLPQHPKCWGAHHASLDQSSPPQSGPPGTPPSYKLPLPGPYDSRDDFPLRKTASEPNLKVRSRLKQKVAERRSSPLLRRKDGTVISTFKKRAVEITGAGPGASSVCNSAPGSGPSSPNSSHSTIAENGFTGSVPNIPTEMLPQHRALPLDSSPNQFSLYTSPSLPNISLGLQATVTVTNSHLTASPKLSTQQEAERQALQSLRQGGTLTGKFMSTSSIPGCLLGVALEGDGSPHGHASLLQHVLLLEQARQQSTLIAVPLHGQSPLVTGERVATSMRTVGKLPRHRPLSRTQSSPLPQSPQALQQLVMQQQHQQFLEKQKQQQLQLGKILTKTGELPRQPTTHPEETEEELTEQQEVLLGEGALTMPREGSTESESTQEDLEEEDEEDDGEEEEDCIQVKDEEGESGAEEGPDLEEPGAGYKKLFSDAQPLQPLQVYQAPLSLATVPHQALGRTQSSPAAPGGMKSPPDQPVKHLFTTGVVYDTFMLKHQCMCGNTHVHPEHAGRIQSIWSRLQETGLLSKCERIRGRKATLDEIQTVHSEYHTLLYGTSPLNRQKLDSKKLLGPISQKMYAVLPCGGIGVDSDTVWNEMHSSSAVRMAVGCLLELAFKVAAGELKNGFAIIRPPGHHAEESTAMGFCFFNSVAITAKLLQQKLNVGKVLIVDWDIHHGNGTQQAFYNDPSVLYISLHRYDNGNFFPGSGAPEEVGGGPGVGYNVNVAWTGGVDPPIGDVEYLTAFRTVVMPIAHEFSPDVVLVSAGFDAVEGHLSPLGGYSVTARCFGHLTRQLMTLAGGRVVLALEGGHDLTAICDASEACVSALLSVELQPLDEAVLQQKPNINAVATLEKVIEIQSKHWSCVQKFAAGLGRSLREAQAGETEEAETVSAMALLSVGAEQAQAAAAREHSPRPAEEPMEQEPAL

pIC50 (CYP2D6)	pIC50 (CYP3A4)	pIC50 (HDAC2; read-out: HDAC2 IC50, Table 2)	pEC50 (Hct116 cells; read-out: EC50 for inhibition of proliferation of Hct116 cells)	pIC50 (Hct116 cells)	activity against the class II HDACs, HDAC 4, 5 and 7 [2]	pIC50 (HDAC8)	pIC50 (HDAC5)	pIC50 (HDAC4)	pIC50 (HDAC7)	pIC50 (HDAC2; read-out: IC50 for Class I HDAC enzymes: HDAC2, Table 1)	Compound	reversal of gene expression deficits (Vdr, Dhrs4), in words [1]	improvement of the metabolic deficit of STHdhQ111 cells, in words (STHdhQ111 striatal cells)	reversal of expression of genes relevant to HD, in words ([3]; 150 mg/kg s.c. three days, striatum)	genes whose expression deficits were corrected, of 13 tested ([3]; qRT-PCR)	pIC50 (IMR90 cells)
< 5.00	6.96	7.15	–	–	–	–	–	–	–	–	Nc1ccc(-c2cccs2)cc1NC(=O)CCCCCCNC(=O)c1cccnc1 [compound 233]	–	–	–	–	–
< 5.00	< 5.00	–	5.00	5.00	essentially no activity	–	–	–	–	–	Cc1ccc(NC(=O)CCCCCC(=O)Nc2ccccc2N)cc1 [4b]	effective at reversing gene expression deficits	significantly improved the metabolic deficit	–	–	–
< 5.00	–	–	–	4.40	–	4.88	< 3.74	< 3.74	< 3.74	5.52	Cc1ccc(C(=O)NCCCCCC(=O)Nc2ccc(F)cc2N)cc1 [compound 136]	–	significantly improved the metabolic deficit	most effective	eight of the 13 genes tested	< 4.30
